# Test results: PMC12406664, “New derivatives of 6-nitrocoumarin-3-thiosemicarbazone exhibit improved antiparasitic activity in the placenta against Trypanosoma cruzi and Toxoplasma gondii” (Antimicrobial Agents and Chemotherapy, 2025)
# “Also recorded” adds a separate entry of the source.
# What was measured:
# [1] = Lipophilicity by reversed-phase TLC (RM); conditions: reverse phase-C18, DMSO/phosphate buffer pH 7.4 (70:30 vol/vol), RM = log[(1/Rf) – 1]
# Method: Lipophilicity was studied by reversed-phase TLC experiments. Precoated TLC plates SIL RP-18W/UV254 were used and eluted with DMSO/physiological serum (70:30, vol/vol). Stock solutions were prepared in pure DMSO (Aldrich) prior to use. The plates were developed in a closed chromatographic tank, dried, and the spots were located under UV light. The Rf values were averaged from three determinations and converted into RM values via the relationship: RM = log [(1/Rf)−1]
# [2] = tested on: T. gondii tachyzoites, RH strain; test: Resazurin viability assay on free T. gondii tachyzoites; type: cell-based, Toxoplasma gondii
# Excerpt: Untreated parasites served as a negative control.
# [3] = tested on: T. cruzi trypomastigotes, Dm28 strain; test: Resazurin viability assay on free T. cruzi trypomastigotes; conditions: Trypanosoma cruzi, 24 h, read-out: Viability T. cruzi (%)
# Method: The reduction of resazurin sodium salt was used to determine the trypanocidal and toxoplasmicidal activity of the 6-nitrocoumarin-thiosemicarbazone hybrids 1–8. For this, treatment with the compounds was carried out for 24 h at a concentration of 100 µM.
# NFX was used as a positive control for T. cruzi, and PMN was used for T. gondii. Untreated parasites served as a negative control. […] Subsequently, parasites with their respective conditions were transferred to a 96-well white fluorescence reading plate, adding resazurin at a final concentration of […] with 0.8 mM phenazine. The plate was incubated for 3 hours at 37°C in a humidified atmosphere with 5% CO2, and fluorescence measurements were taken using a microplate reader (Thermo Scientific Varioskan Flash) at excitation wavelengths of 560 nm and emission wavelengths of 590 nm.
# [4] = tested on: intracellular amastigotes of T. cruzi (Tulahuen β-gal); test: Intracellular amastigotes, β-galactosidase-expressing T. cruzi in LLC-MK2 cells (CPRG); type: cell-based, Trypanosoma cruzi; conditions: 72 h
# Method: The effect of the compounds over intracellular amastigotes of a β-galactosidase-expressing recombinant strain of T. cruzi (Tulahuen β-gal) was also evaluated (see Table S4 at https://doi.org/10.5281/zenodo.15694236). […] Similarly, intracellular anti-T. gondii tachyzoite was assessed using quantitative immunocytochemistry targeting the parasite’s P30 protein (see Table S4 at https://doi.org/10.5281/zenodo.15694236). […] The complete absence of activity of hydroxylated compounds against intracellular forms of both parasites was confirmed, which could be attributed to their inability to permeate mammalian cell membranes.
# LLC-MK2 cells (2 × 10^4/well), suspended in 200 µL DMEM with 10% FBSi and 1% antibiotics (penicillin-streptomycin), were placed in each well of a 96-well plate and incubated for 24 hours. Subsequently, the culture medium was removed, and cell monolayers were infected by placing five trypomastigotes per cell in 200 µL of DMEM 2 for 24 hours under the same incubation conditions. After infection, the culture medium was removed, and cells were washed 4 times with 1× sterile PBS. Finally, 10 twofold serial dilutions (200 µM to 0.39 µM concentration range) of each compound, in DMEM 2 without phenol red, were placed in duplicate wells in a 96-well plate and incubated for 72 hours. […] Absorbance at 600 nm was read 4 hours later, in a multimodal GloMax microplate reader (Promega).
# [5] = Cyclic voltammetry, reduction potentials in DMSO (HDME, vs. Ag/AgCl); conditions: 2.00 V/s
# Method: Electrochemical studies were carried out on a Metrohm Autolab instrument model PGSTAT204, using dimethyl sulfoxide (DMSO) as the solvent (1 mM solutions), tetrabutylammonium perchlorate (0.1 M TBAP) as the supporting electrolyte, a hanging drop mercury electrode (HDME) as the working electrode, Ag/AgCl (3M KCl) as the reference electrode and a graphite rod as the counter electrode. All measurements were performed after bubbling with nitrogen (N2) for 10 minutes.
# [6] = tested on: T. gondii (RH strain) in HPE; test: T. gondii DNA load in infected human placental explants (HPE) by real-time qPCR; type: cell-based, Toxoplasma gondii; conditions: IC50 concentration
# Method: The effect on HPE infection of compounds 1 and 7 by Toxoplasma gondii and Trypanosoma cruzi, respectively, was evaluated. To do this, the DNA of the T. gondii or T. cruzi parasite was quantified by infecting HPE for 24 hours under treatment conditions of co-incubation of compounds with the parasite at the same time of infection, and with a 24 hour post-infection treatment. The compound’s IC50 concentration value previously obtained under both conditions was used.
# Term human placentas were obtained from uncomplicated pregnancies via scheduled cesarean sections. Each patient provided informed consent for the experimental use of the placenta, and the study was approved by the ethics committee of Hospital San José, Servicio Salud Metropolitano Norte (N° 013/2022). Exclusion criteria for placental use included significant fetal anomalies, placental tumors, intrauterine infection, positive serology for Chagas disease, obstetric pathology, and any other maternal disease. Donor patients tested negative for T. gondii IgG/IgM antibodies. Organs were collected in sterile, cold PBS and processed within 30 minutes after delivery. Maternal and fetal surfaces of each placenta were discarded, and the villous tissue from the central part of the placental cotyledons was isolated. […] All the experiments were performed in triplicate in at least three different placentas.
# Cells or HPE were exposed to parasites. […]
# Subsequently, cells were exposed to parasites at a 1:1 ratio (cell: parasite) for 24 hours. […] The resulting DNA was quantified using a μDrop Plate DNA quantification system on the Varioskan Flash multimode reader (Thermo Scientific, USA). […]
# (§1) Amplification was carried out using the CFX96 Touch Deep Well Real-Time PCR Detection System (Biorad, California, USA) with the following cycling program: initial denaturation at 95°C for 3 min, followed by 40 cycles of denaturation at 95°C for 5 s, annealing at 60°C for 30 s, and a dissociation stage ranging from 60°C to 95°C. The relative quantification analysis of the results was expressed as RQ values using the comparative […] (∆∆Ct) ([80]).
# [7] = tested on: T. gondii (RH strain) in BeWo cells; test: T. gondii DNA load in infected BeWo cells by real-time qPCR; type: cell-based, Toxoplasma gondii; conditions: IC50 concentration
# Method: (§2) Cells or HPE were exposed to parasites. […] The following treatment conditions were used in both infection models. […] Untreated cells or HPE served as a negative control, and the compounds’ activity was compared with the reference drugs (NFX and PMN).
# Subsequently, cells were exposed to parasites at a 1:1 ratio (cell: parasite) for 24 hours. Finally, the cells were washed with PBS and harvested using trypsin. For the parasitic DNA load in the ex vivo infection model, HPE was incubated in 24-well plates and exposed to parasites at a concentration of 10^5 parasites/mL for 24 hours. Finally, they were washed with PBS and homogenized using the ultraturrax homogenizer OMNI TipTM. Genomic DNA was extracted from BeWo cells or HPE using the Wizard Genomic DNA Purification Kit (Promega, USA) following the manufacturer’s instructions. The resulting DNA was quantified using a μDrop Plate DNA quantification system on the Varioskan Flash multimode reader (Thermo Scientific, USA). For the amplification of human DNA and parasitic DNA, three pairs of primers specific for human GAPDH (hGADPH), T. cruzi satellite DNA, and T. gondii B1 gene DNA were used (Table 7). Each reaction mixture contained 0.5 µL of 10 nM of each primer (Forward and reverse), 1 ng of DNA from T. cruzi samples, 10 ng of DNA from T. gondii samples, 10 µL of SensiFASTTM SYBR Hi-ROX kit (Bioline, Heidelberg, Baden Württemberg, Germany), and ultrapure water (Sigma-Aldrich, St. Louis, MO, USA) for a total of 20 µL.
# as §1
# [8] = Cytotoxicity on cells (resazurin), BeWo; type: cell-based; conditions: human, BeWo trophoblast cells
# Excerpt: (§3) Triton X-100 was used as a positive control, and untreated cells served as a negative control. In addition, the maximum concentration of DMSO was used as a control for the method. […] The obtained values were expressed as IC50([88]).
# [9] = tested on: human placental explants (HPE); test: Histopathology of uninfected HPE exposed to the compounds alone; conditions: explants incubated only with the compound, 24 h, IC50 concentration
# Method: The HPE was fixed in 10% formaldehyde in 0.1 M phosphate buffer (pH 7.3) for 24 h, dehydrated in alcohol, clarified in xylene, embedded in paraffin, and sectioned at 3 µm. Paraffin histological sections were stained with hematoxylin-eosin for routine histological analysis, Picro Sirius red, and trichromic Masson for collagen histochemistry. Sections for the histological analysis were observed under an optical microscope (Leica DM500) and images were captured with a Leica ICC50 W camera ([7], [91]).
# [10] = tested on: T. gondii (RH strain) in BeWo cells; test: Infection of BeWo cells by T. gondii, infected cells counted by fluorescence microscopy; type: cell-based, Toxoplasma gondii; conditions: compound at IC50, untreated control 64 ± 6
# Method: The effect of the compounds on the infection of BeWo trophoblast cells by T. gondii and T. cruzi was assessed. The DNA of T. gondii and T. cruzi was quantified in infected BeWo cells treated for 24 hours under two conditions: co-incubation and post-infection treatment. […] Fluorescence microscopy was employed to quantify the number of infected cells. The resulting images were analyzed using ImageJ software to count both infected and uninfected cells.
# For the microscopic analysis of BeWo cells infected with T. cruzi, the cells were washed with PBS to remove the supernatant, fixed with 90% cold methanol, rewashed with PBS, and incubated for 5 minutes with 1 µg/mL—1 4,6-diamidino-2-phenylindole (DAPI) (Molecular Probes). To analyze BeWo cells infected with T. gondii, cells were fixed with 90% cold methanol, washed with PBS containing 0.05% Tween, and blocked using 3% BSA for 1 hour at 37°C. Then, they were incubated with the primary monoclonal antibody Toxoplasma gondii (TP3): sc-52255 at a dilution of 1:500 with 1% BSA overnight at 4°C. Afterward, the samples were incubated with the FITC anti-mouse IgG secondary antibody at a dilution of 1:100 with 1% BSA for 1 hour at 37°C. Finally, they were washed with PBS containing 0.05% Tween and incubated for 5 minutes with DAPI. Subsequently, the sections were mounted in Vectashield (ScyTek ACA). Sections for the analysis of cell infection by T. cruzi and T. gondii were observed under an epifluorescence microscope (Motic BA 310), and images were captured with a Motic 5 camera. T. cruzi amastigotes were identified by their morphology, including nuclear size and the presence of a kinetoplast, and were analyzed and quantified using ImageJ. At least 500 cells per condition were analyzed, and infected and non-infected cells were counted for every 100 cells ([35], [70]).
# as §2
# [11] = tested on: HPE exposed to T. gondii tachyzoites; test: Histopathology of HPE infected with T. gondii; type: cell-based, human; conditions: IC50 concentration
# Excerpt: as §2
# [12] = Cytotoxicity on cells (resazurin), EA.hy926; type: cell-based; conditions: human, EA.hy926 endothelial cells
# Excerpt: as §3
# [13] = tested on: T. cruzi trypomastigotes (strain Dm28); test: ESR spin trapping with DMPO in T. cruzi; type: cell-based, Trypanosoma cruzi; conditions: compound about 1 mM, menadione 20 µM
# Method: (§4) Each tested hybrid was dissolved in spectroscopy-grade DMSO at an approximate concentration of 1 mM and added to a mixture containing Trypanosoma cruzi (Dm28c strain) or Toxoplasma gondii at a density of 50 × 10⁶ trypomastigotes or tachyzoites per mL, along with DMPO at a final concentration of 250 mM. Menadione (20 µM) was used as a positive control.
# (§5) All spectra were acquired on the same scale after 15 scans.
# [14] = tested on: T. gondii tachyzoites (strain RH); test: ESR spin trapping with DMPO in T. gondii; type: cell-based, Toxoplasma gondii; conditions: compound about 1 mM, menadione 20 µM
# Method: as §4, §5
# [15] = tested on: T. gondii tachyzoites (strain RH); test: Intracellular ROS generation (DCF probe) in T. gondii; type: cell-based, Toxoplasma gondii; conditions: compound at IC50, menadione 20 µM, 40 minutes, vs untreated control
# Method: ROS detection was performed using the 2′,7′-dichlorodihydrofluorescein diacetate (DCFH2-DA) method ([45]). For the assay, Dm28c trypomastigotes and tachyzoites were seeded in 96-well plates at a density of 10⁶ parasites/mL. In contrast, BeWo cells were seeded at 5 × 10⁴ cells per well, using the previously described culture medium.
# After incubation with 20 µM DCFH2-DA for 15 minutes at 37°C, the parasites were centrifuged at 3,500 × g, washed twice with PBS (pH 7.4), and subsequently transferred to Nunc 96-well fluorescence plates. Meanwhile, after 24 hours of incubation at 37°C and 5% CO₂, the culture medium of BeWo cells was replaced, and 20 µM DCFH2-DA solution was added, followed by a 15 minute incubation at 37°C. The cells were then washed with PBS at pH 7.4. As a positive control, 20 µM menadione was used, while the negative control consisted of culture medium without compounds.
# Over time, the area under the fluorescence increase curve was determined using Origin 8 software (version 9.2), with normalization relative to the control. The results correspond to three independent experiments' mean ± standard deviation (SD).
smiles,measurement,setting,value
"C/C(=N\NC(=S)Nc1ccccc1)c1cc2cc([N+](=O)[O-])ccc2oc1=O [Compound 8, (E)−2-(1-(6-nitro-2-oxo-2H-chromen-3-yl)ethylidene)-N-phenylhydrazine-1-carbothioamide]",Lipophilicity (RM),[1],0.20
same,viability at 100 µM,"[2]; Toxoplasma gondii, tachyzoites RH, 100 µM, 24 h",86.2 ± 14.4%
same,viability at 100 µM,[3],45.2 ± 6.7%
same,activity over intracellular amastigotes,[4],most active
same,E(pIIa),[5]; anodic peak IIa,−0.86 V
same,E(pIIIc),"[5]; cathodic peak IIIc, hydroxylamine formation",−1.39 V
same,E(pIIc),"[5]; cathodic peak IIc, nitro anion radical couple",−0.94 V
same,E(pIVc),"[5]; cathodic peak IVc, imine reduction",−1.68 V
"CCc1nc(N)nc(N)c1-c1ccc(Cl)cc1 [PMN, pyrimethamine, reference compound]",effect on parasite DNA load,[6]; 24 hour post-infection treatment,decreased; also recorded: effectively reduced the explants’ parasitic load
same,effect on parasite DNA load,[6]; co-incubation,effectively reducing the parasitic load
same,IC50,"[2]; Toxoplasma gondii, extracellular tachyzoites RH strain, 24 h, resazurin",20.8 ± 1.1 µM
same,SI = BeWo CC50/parasite IC50,[2]; parasite T. gondii,6.03
same,SI = EA.hy926 CC50/parasite IC50,[2]; parasite T. gondii,13.8
same,effect on parasite DNA load,[7]; co-incubation,more significant
same,effect on parasite DNA load,[7]; post-infection treatment,significantly reduced the parasite DNA load
same,CC50 at 24 h,[8],125.5 ± 0.8 µM
same,tissue damage caused by the compound itself in HPE,[9],neither compound induced tissue damage
same,Infected cells (%),[10]; co-incubation 24 h,19 ± 2%
same,Infected cells (%),[10]; post-infection treatment 24 h,16 ± 4%
same,tissue damage in infected HPE (histopathology),[11]; co-incubation,without causing tissue damage
same,tissue damage in infected HPE (histopathology),[11]; post-infection treatment,decreased the induced tissue damage
same,CC50 at 24 h,[12],287.5 ± 0.9 µM
"CC1=CC(=O)c2ccccc2C1=O [menadione, reference compound]",radical species detected by ESR spin trapping (DMPO),[13],triplet (aN ~15.5 G) corresponding to a DMPO-derived oxidized paramagnetic compound
same,radical species detected by ESR spin trapping (DMPO),[14],formation of multiple signals
same,ROS generation (DCF fluorescence),[15],significant increase in ROS production
